Measurements reported in patent US20230364204A1, “Bioactive Peptides, Compositions, Production Process, and Use of Bioactive Peptides as Anti-Tumoral Agents” (priority 2022, published 2023).

Experiments:
MDAMB231 cells [1] = test: BrdU cellular proliferation, tumor cells; type: cell-based; settings: MDAMB231, 24 h, 0.2 µg/mL (minimum decrease)
Experimental: (§1) The method of Bomodeoxyuridine (BrdU) quantification was carried out according to the Standard Operational Protocols Nos. 10 and 12 of the Laboratory of Clinical Cytology of the Faculty of Pharmaceutical Sciences of Ribeirao Preto (FCFRP -USP). In this method, for the BrdU quantification, cells were plated in 96-well sterile plates for cell culture with a cap at the density of 2 × 10^4 cells/well for treatments lasting 24 h and 1 × 10^4 cells/well for treatments with 48 h or more, completing the volume to 100 µL with culture medium. The plates were incubated for 8-16 h in an incubator at 37° C. and 5% CO2. The next day, the treatments were prepared in culture medium, applying 200 µL/well at the desired concentration, and the plates were placed in an incubator at 37° C. and 5% CO2 for the duration of treatment. After the treatment period, 20 µL/well of a BrdU-labeling was added and incubated at 37° C. and 5% CO2 for 2.5 h. After incubation with BrdU labeling, the plates were stored at 2-4° C. up to 1 week. […] Substrate was developed for 15 minutes and reaction was stopped with HCl 6 M solution and read in a spectrophotometer at 495 nm with endpoint.
(§2) The calculation of cell proliferation was performed using the formula: […]
(§3) O.D.: optical density captured by spectrophotometer NOTE: The Basal O.D. is the one found in the blank wells. […]

[2] = system: Rho-GTPases (Rho-A, Rho-C), protein elongation mechanism; test: Proteomics analysis; type: cell-based; settings: data not shown
MDAMB231 cells [3] = test: MTT with or without autophagy inhibitor 3-methyladenine (3-MA); type: cell-based
Experimental: The 3-Methyladenine (3-MA) is an autophagy inhibitor (blocks the activation of this mechanism of action). For molecules that trigger autophagy as a cell death mechanism when this pathway is blocked the molecule loses action.
The MTT method was carried out as previously described herein, comparing the effect of 3-NAntC with or without 3-Methyladenine (3-MA).
(§4) In order to determine the effects of the peptide in LDH release, autophagy induction and apoptosis/necrosis profile of MDAMB231 cell line, the Analysis of Variance (ANOVA) with Dunnet and Bonferroni post-hoc tests were applied to the significance of 5% in GraphPad Prism software version 6.0.

[4] = system: NFKB, Caspases (Caspase 9); test: Western blot protein expression; type: cell-based; settings: compared to the negative control
MDAMB231 cells [5] = test: Lactate dehydrogenase (LDH) release; type: cell-based; settings: MDAMB231, 24, 48 and 72 h
Experimental: The lactate dehydrogenase (LDH) is a cytosolic enzyme present in most mammalian cells.
For LDH release protocol, after treatments were performed for the MTT protocol, 20 µL of the supernatant of each well was transferred to an EIA/RIA plate. Then, 20 µL/well of the Reaction Mixture from the CyQUANT™ LDH Cytotoxicity Assay kit and reaction was incubated at RT for 30 minutes in the dark. Then, 60 µL/well of the Stop Solution from the kit was added and plate was read in a spectrophotometer at both 490 nm and 650 nm.
The calculation of LDH release was performed as follows: • 1. The absorbance measured at 650 nm was subtracted from the absorbance measured at 490 nm. • 2. This formula was applied: […]
O.D.: optical density captured by spectrophotometer NOTE: The Basal O.D. is the one found in the blank wells (only reaction mixture and stop solution).
as §4

HDFa benign cell line = test: BrdU cellular proliferation, benign cells; type: cell-based; settings: maximum time of exposure
Experimental: as §1, §2, §3

[6] = system: Triple negative breast tumor cells (MDAMB231); test: Observation of triple negative breast tumor cells after treatment (FIG. 3/4); type: cell-based; settings: MDAMB231, treated for 24 h
Experimental: FIG. 3 illustrates the untreated triple negative tumor cells, presented in large numbers.
FIG. 4 illustrates the tumor cells after being treated with the peptide 3-NantC (SEQ ID 1) for 24h. The arrows indicate the tumor cells, which are shown in smaller numbers and with vesicles when compared with the untreated tumor cells.

[7] = system: MDA-MB-231 cells implanted in zebrafish larvae; test: Zebrafish xenograft model of MDAMB231 (primary tumor and metastasis); type: in vivo
Experimental: Transgenic Tg(fli1:EGFP)y1 zebrafish embryos were raised at 28° C. for 48 hours in E3 embryo medium 0.2 mM 1-Phenyl-2-Thiourea aka PTU. […] MDA-MB-231 cells were labeled with Dil red fluorescent dye. Approximately 700 Dil Labeled cancer cells were subcutaneously co-implanted into the perivitelline space of 2 days old larvae ± 3-NantC peptide at […]. Larvae in which tumor cells had been inadvertently injected into circulation or larvae with erroneous implantation of the tumor in the yolk rather than the perivitelline space were excluded from the study. Selected tumor bearing embryos were sorted into experimental groups (20 embryos/group), and pictures of primary tumors were taken right after injection. Doxorubicin treatment was added to embryo water at 2.5 µg/mL according to the study plan. Tumor-bearing embryos were incubated in E3/PTU medium for 72 h at 36° C. After incubation, pictures of the primary tumors and the CVP were taken using a red fluorescent filter. Larvae that died or were lost by other means during the study were excluded from the final analysis.
Images obtained right after implantation (day 0) and after 72 h incubation (day 3) were analyzed by using in-house developed software. Tumor growth regression was calculated and normalized to the negative control group. The number of metastasized cells was counted manually. One-way ANOVA was performed followed by two-tailed Student’s t-test. Definitive outliers were detected using the ROUT method with a Q=1%. Graphs and example images, and experimental data were obtained/analyzed by using GraphPad Prism v9.0.2.

CSCC[C@H](N)C(=O)N[C@@H](Cc1ccccc1)C(=O)N[C@@H](Cc1ccc(O)cc1)C(=O)N1CCC[C@H]1C(=O)N[C@@H](CC(=O)O)C(=O)N[C@@H](CO)C(=O)N[C@@H](CCCNC(=N)N)C(=O)N[C@@H](CS)C(=O)N[C@@H](CCCNC(=N)N)C(=O)NCC(=O)N1CCC[C@H]1C(=O)N[C@@H](CO)C(=O)N[C@@H](CCC(=O)O)C(=O)N[C@H](C(=O)O)[C@@H](C)O [3-NAntC, [H]-MFYPDSRCRGPSET-[OH]]
decrease of proliferation rate (BrdU) (MDAMB231 cells [1]): 33% | Rho-GTPases expression (e.g. Rho-A and Rho-C) [2]: diminished | protein elongation mechanism [2]: continuously disabling | activity with and without the autophagy inhibitor 3-MA (MTT) (MDAMB231 cells [3]): remains the same | activation of Caspases, namely Caspase 9 [4]: greater activation | activation of pro-survival signals such as NFKB [4]: may inhibit the activation | LDH release (MDAMB231 cells [5]): does not show any significant increase | effect on proliferation of benign cells (BrdU) (HDFa benign cell line): did not alter the proliferation | number of tumor cells compared to no treatment [6]: lower numbers | number of vesicles compared to no treatment [6]: greater number of vesicles | decrease of metastatic cells ([7]; 75 and 125 mg/mL): about 60% | decrease of tumor cells (primary tumor) ([7]; 72 h, 3-NantC co-implanted at 75, 100 or 125 mg/mL, Doxorubicin 2.5 µg/mL in embryo water): 75% | decrease in metastatic cells ([7]; very low concentrations (FIG. 17)): about 40%
